Several values for one entry are separate records, joined by “and”; a condition that tells them apart may be missing. Equal values may be shown once.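 Five compound concentrations were applied to cells in 96-well plates for 48 hours; endpoints were derived by simple linear interpolation of the resulting dose-response curve. GI50 = concentration required for 50% inhibition of growth. Definition used: TGI = concentration required for complete inhibition of growth.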
Assays:
Test in all cases: inhibition of tumour cell growth, NCI panel, 48 h
HOP-92 NSCLC = tested on: HOP-92 NSCLC
HL-60(TB) leukemia = tested on: HL-60(TB) leukemia
SK-MEL-28 melanoma = tested on: SK-MEL-28 melanoma
A498 renal = tested on: A498 renal
A549 NSCLC = tested on: A549 NSCLC
CCRF-CEM leukemia = tested on: CCRF-CEM leukemia
SK-MEL-5 melanoma = tested on: SK-MEL-5 melanoma
OVCAR-3 ovarian = tested on: OVCAR-3 ovarian
DU-145 prostate = tested on: DU-145 prostate
LOX IMVI melanoma = tested on: LOX IMVI melanoma

| Compound | GI50 (HOP-92 NSCLC) [µM] | TGI (HOP-92 NSCLC) [µM] | GI50 (HL-60(TB) leukemia) | TGI (HL-60(TB) leukemia) | GI50 (SK-MEL-28 melanoma) | TGI (SK-MEL-28 melanoma) | GI50 (A498 renal) | TGI (A498 renal) | GI50 (A549 NSCLC) | TGI (A549 NSCLC) | GI50 (CCRF-CEM leukemia) | TGI (CCRF-CEM leukemia) | GI50 (SK-MEL-5 melanoma) | TGI (SK-MEL-5 melanoma) | GI50 (OVCAR-3 ovarian) | TGI (OVCAR-3 ovarian) | GI50 (DU-145 prostate) | TGI (DU-145 prostate) | GI50 (LOX IMVI melanoma) | TGI (LOX IMVI melanoma) |
| --- | --- | --- | --- | --- | --- | --- | --- | --- | --- | --- | --- | --- | --- | --- | --- | --- | --- | --- | --- | --- |
| COc1ccc(/C(C#N)=C2C=C/C(=N/O)c3ccccc3\2)cc1 | 0.39 | 6.96 | 0.254 µM | 0.688 µM | 1.22 µM | 20 µM | 2.21 µM | 6.75 µM | 0.339 µM | 13.4 µM | 0.254 µM | 12.6 µM | 0.323 µM | 1.26 µM | 0.314 µM | 2.79 µM | 0.34 µM | 8.85 µM | 0.382 µM | 14.7 µM |
| COC(=O)[C@H]1CCCN1C(=O)[C@H]1CCCN1C(=O)[C@H](Cc1c[nH]c2ccccc12)NC(=S)Nc1cc(C(F)(F)F)cc(C(F)(F)F)c1 | 1.7 | 6.97 | 4.19 µM | 57.2 µM | 5.83 µM | > 100 µM | 6.54 µM | > 100 µM | 4.08 µM | > 100 µM | 7.23 µM | > 100 µM | 5.14 µM | > 100 µM | 8.43 µM | > 100 µM | 6.53 µM | > 100 µM | 3.19 µM | 26.3 µM |
| CCN(CC)Cc1cc2[nH]c3c4ccc(Cl)cc4ncc3c2cc1OC | 5.14 | 22.1 | 5.13 µM and 2.24 µM | – | 1.95 µM and 1.88 µM | 3.53 µM and 3.42 µM | 15.9 µM and 10 µM | 29.4 µM and 21.7 µM | 3.46 µM and 3.16 µM | 13.3 µM and 10.5 µM | 2.52 µM and 1.8 µM | > 19.7 µM and 4.57 µM | 1.61 µM and 1.62 µM | 3 µM and 2.98 µM | 1.89 µM and 2.02 µM | 3.78 µM and 4.29 µM | 3 µM and 2.46 µM | 9.18 µM and 6.38 µM | 1.73 µM and 1.7 µM | 3.43 µM and 3.23 µM |
| Cc1cc(Cl)nc(N(CCCNc2ccnc3cc(Cl)ccc23)Cc2ccco2)n1 | 0.779 | 4.19 | 2.05 µM | 5.14 µM | 2.38 µM | 6.37 µM | 1.55 µM | 7.99 µM | 3.28 µM | 13.9 µM | 2.32 µM | 8.93 µM | 1.54 µM | 3.01 µM | 2.48 µM | 10.3 µM | 3.48 µM | 14.7 µM | 2.07 µM | 5.4 µM |
| Cn1cc(C2=C(c3cn(CCCCCSC(=N)N)c4ccccc34)C(=O)NC2=O)c2ccccc21 | 3.27 | 7.21 | 3.62 µM | 7.85 µM | 3.55 µM | 7.17 µM | 3.65 µM | 6.97 µM | 4.4 µM | 8.65 µM | 1.93 µM | 5.87 µM | 3.28 µM | 6.67 µM | 3.22 µM | 6.55 µM | 3.58 µM | 6.93 µM | 2.92 µM | 6.48 µM |
| COc1ccc(N(C)c2nc(N)nc3sc4c(c23)CCCC4)cc1 | < 0.0187 | 6.81 | < 0.01 µM | 0.0101 µM | 4.3 µM | 23.4 µM | < 0.01 µM | < 0.0209 µM | < 0.0149 µM | 17.3 µM | < 0.01 µM | 55.5 µM | < 0.01 µM | 0.505 µM | 0.025 µM | 14.2 µM | < 0.0166 µM | 11.2 µM | < 0.01 µM | 15.3 µM |
| CN(Cc1cnc2nc(N)nc(N)c2n1)c1ccc(C(=O)NC(CCC(=O)O)C(=O)O)cc1Br (centres undefined) | 1.47 | 23.1 | < 0.01 µM | > 100 µM | 0.23 µM | 19.5 µM | < 0.01 µM | 4.71 µM | < 0.01 µM | > 100 µM | < 0.01 µM | > 44.5 µM | < 0.01 µM | 4.51 µM | < 0.01 µM | 4.43 µM | < 0.01 µM | > 100 µM | < 0.01 µM | 2.1 µM |
| c1ccc2c3c([nH]c2c1)C(c1ccc(C2NCCc4c2[nH]c2ccccc42)cc1)NCC3 (centres undefined) | 0.731 | 2.89 | 1.13 µM | 2.81 µM | 1.68 µM | 3.18 µM | 1.64 µM | 8.87 µM | 1.1 µM | 2.54 µM | 0.452 µM | 2.03 µM | 1.7 µM | 3.13 µM | 1.24 µM | 2.6 µM | 0.749 µM | 2.13 µM | 0.196 µM | 0.45 µM |
| CC[C@H](C)[C@H](NC(=O)[C@H]1CCCCN1C)C(=O)N(C)[C@H](C[C@@H](OC(C)=O)c1nc(C(=O)N[C@@H](Cc2ccccc2)C[C@H](C)C(=O)O)cs1)C(C)C | 7.24 | > 16.5 | 0.000394 µM and < 0.00165 µM | 0.00267 µM and < 0.00165 µM | 8.63 µM | > 16.5 µM | 0.000548 µM and < 0.00165 µM | < 0.00165 µM | 0.00153 µM and 0.00165 µM | > 16.5 µM | 0.000392 µM and 0.00165 µM | 2.49 µM | 0.00013 µM and < 0.00165 µM | 0.0102 µM and < 0.00165 µM | 0.000234 µM and < 0.00165 µM | 0.0119 µM and < 0.00165 µM | 0.000475 µM and 0.00165 µM | 0.0367 µM | 0.000609 µM and 0.00165 µM | > 16.5 µM |
| O=C(Nc1nc2ccccc2s1)Nc1ccc([N+](=O)[O-])cc1Cl | 3.81 | 11.7 | 15.2 µM | > 54.7 µM | 6.25 µM | 20.1 µM | 5.15 µM | 12.5 µM | 2.17 µM | 5.7 µM | 2.52 µM | > 49.4 µM | 7.3 µM | 22.1 µM | 3.05 µM | 8.17 µM | 3.08 µM | 7.74 µM | 2.66 µM | 6.7 µM |
| CC[C@H](C)[C@H](NC(=O)CN(C)C)C(=O)N(C)[C@H](C[C@@H](OC(C)=O)c1nc(C(=O)NC23CC(C(=O)OC)(C2)C3)cs1)C(C)C | > 25 | > 25 | 0.0455 µM | 0.181 µM | 3.06 µM | > 25 µM | 1.47 µM | > 25 µM | 1.62 µM | > 25 µM | 0.0932 µM | > 25 µM | 0.572 µM | 4 µM | 0.0804 µM | > 7.19 µM | 0.183 µM | > 25 µM | 0.276 µM | > 25 µM |
| COc1cc2c(=O)[nH]c3cc([N+](=O)[O-])ccc3c2cc1[N+](=O)[O-] | 15.8 | > 100 | > 100 µM | > 100 µM | > 100 µM | > 100 µM | 2.46 µM | > 100 µM | 4.11 µM | > 100 µM | 3.99 µM | > 100 µM | 4.63 µM | > 100 µM | 3.85 µM | 31.7 µM | 4.63 µM | > 100 µM | 3.51 µM | > 100 µM |
| CN(CC(=O)N(Cc1ccc(C2CCCCC2)cc1)c1ccc(C(=O)O)cc1)S(=O)(=O)c1c(F)c(F)c(F)c(F)c1F | 2.11 | 4.02 | 2.08 µM | 4.48 µM | 1.62 µM | 3.03 µM | 2.15 µM | 7.65 µM | 6.59 µM | 21.6 µM | 2.69 µM | 6.81 µM | 1.84 µM | 3.58 µM | 1.79 µM | 3.19 µM | 1.74 µM | 3.11 µM | 1.61 µM | 3.03 µM |
| CCOC(=O)COc1ccc2c(C)cc(=O)oc2c1 | – | > 100 | – | > 100 µM | – | > 100 µM | – | > 100 µM | – | > 100 µM | – | > 100 µM | – | > 100 µM | – | > 100 µM | – | > 100 µM | – | > 100 µM |
| CC1=C(C(=O)Nc2ccc(Cl)c(C(=O)OC(C)C)c2)SCCO1 | – | > 100 | – | 51 µM | – | 99.5 µM | – | 90.9 µM | – | 65.8 µM | – | 65.1 µM | – | 81.4 µM | – | > 100 µM | – | > 100 µM | – | 84.6 µM |
| COc1nnc2ccc(N3CCC(c4ccc(OCCN5CCN(C)C(=O)[C@H]5C)cc4)CC3)nn12 | 0.0541 | > 65.3 | 0.0309 µM | > 100 µM | 0.522 µM | > 100 µM | 0.0813 µM | 3.06 µM | 0.436 µM | > 100 µM | 0.323 µM | > 100 µM | 0.155 µM | 13.7 µM | 0.0975 µM | 53.1 µM | 9.88 µM | > 100 µM | 0.038 µM | 4.56 µM |
| N#CC1c2ccccc2C=CN1C(=O)N(c1ccccc1)c1ccccc1 (centres undefined) | 2 | 4.36 | 2.11 µM | 6.24 µM | 2.43 µM | 5.84 µM | 7.14 µM | 24.4 µM | 19.7 µM | 51.8 µM | 2.97 µM | 8.99 µM | 4.03 µM | 14.8 µM | 1.76 µM | 3.18 µM | 3.04 µM | 9.36 µM | 2.04 µM | 4.61 µM |
| CCN1CCN(C(=O)[C@]23CCC(C)(C)C[C@@H]2C2=CC[C@@H]4[C@@]5(C)C/C(=C/c6ccncc6)C(=O)C(C)(C)[C@@H]5CC[C@@]4(C)[C@]2(C)CC3)CC1 | 1.07 | 2.39 | 1.04 µM | 4.4 µM | 1.62 µM | 3.03 µM | 1.7 µM | 3.1 µM | 1.66 µM | 4.65 µM | 1.7 µM | 5.32 µM | 1.6 µM | 2.99 µM | 1.49 µM | 2.91 µM | 1.67 µM | 3.19 µM | 1.4 µM | 2.8 µM |
| COc1cc(-c2nn(-c3cccc(NC(=O)c4ccc(Cl)c(C(F)(F)F)c4)c3)cc2-c2ccncc2)ccc1Cl | 0.425 | 2.5 | 2.56 µM | > 32.5 µM | 3.09 µM | > 32.5 µM | 1.02 µM | 7.01 µM | 2.41 µM | > 32.5 µM | 1.77 µM | > 32.5 µM | 1.13 µM | 8.69 µM | 1.43 µM | 15.2 µM | 5.46 µM | > 32.5 µM | 1.92 µM | > 32.5 µM |
| C=CC(=O)N1CC2(CC(n3nc(-c4ccc5c(cnn5C)c4)c(-c4c(Cl)c(C)cc5[nH]ncc45)c3C)C2)C1 | 3.36 | 14.3 | 2.58 µM | 9.27 µM | 2.44 µM | 5.44 µM | 3.99 µM | 13.3 µM | 3.05 µM | 12.5 µM | 2.67 µM | 14.8 µM | 1.61 µM | 3.02 µM | 1.98 µM | 4.18 µM | 3.11 µM | 9.45 µM | 1.69 µM | 3.55 µM |
| Cc1cc(N2CCN(C)CC2)n2nc(-c3ccc(Cl)cc3)nc2n1 | – | > 100 | – | > 100 µM | – | > 100 µM | – | > 100 µM | – | > 100 µM | – | > 100 µM | – | > 100 µM | – | > 100 µM | – | > 100 µM | – | > 100 µM |

Reference: PubChem BioAssay (NCI)
